Patent US5061720A, “Substituted-4-thiazolidinone derivatives” (A. H. Robins Company, Inc., priority 1989, dated 1991)

Key:
cyclooxygenase = biological target: T1, cyclooxygenase (Ovis aries, UniProt P05979); test: Cyclooxygenase Assay (polarigraphic oxygen consumption, lipid-depleted sheep seminal vesicle microsomes); type: biochemical; conditions: 30° C., 2 min incubation, ammonium arachidonate substrate
T1 construct: Lipid-depleted Sheep Seminal Vesicle Microsome Suspension; from tissue; host or cells: sheep seminal vesicle microsomes (lipid-depleted powder, detergent solubilized)
T1 sequence (P05979 25-600): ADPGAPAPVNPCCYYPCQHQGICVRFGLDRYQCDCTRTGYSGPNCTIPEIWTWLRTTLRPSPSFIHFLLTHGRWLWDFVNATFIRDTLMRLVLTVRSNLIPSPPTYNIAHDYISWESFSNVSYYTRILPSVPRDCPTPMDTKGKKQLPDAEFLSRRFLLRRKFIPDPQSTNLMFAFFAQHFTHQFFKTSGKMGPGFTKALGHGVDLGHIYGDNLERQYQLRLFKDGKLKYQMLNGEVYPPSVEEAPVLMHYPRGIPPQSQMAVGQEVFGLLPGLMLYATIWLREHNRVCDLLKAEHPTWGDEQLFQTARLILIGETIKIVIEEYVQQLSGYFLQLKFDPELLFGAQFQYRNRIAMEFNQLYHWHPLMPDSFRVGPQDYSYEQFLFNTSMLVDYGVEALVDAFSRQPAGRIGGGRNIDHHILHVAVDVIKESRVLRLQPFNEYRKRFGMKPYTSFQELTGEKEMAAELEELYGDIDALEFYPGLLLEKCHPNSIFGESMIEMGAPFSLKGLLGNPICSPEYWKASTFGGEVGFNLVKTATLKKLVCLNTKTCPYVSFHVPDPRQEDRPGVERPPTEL
Description: Cyclooxygenase activity was determined polarigraphically with detergent solubilized, lipid-depleted sheep seminal vesical microsomes. Addition of test articles that inhibit cyclooxygenase, including reference standards, cause a decrease in the rate of oxygen consumption in the reactions. Cyclooxygenase activity is determined using the following procedures:
I. Preparation of Test Materials
1. Lipid-Depleted Sheep Seminal Vesicle Microsomal Powder. This preparation follows the procedure of G. Graff et al. J. Biol. Chem. 253, 7662 (1978).
2. Ammonium Arachidonate Solution. A 250 μL aliquot of 20.0 mM arachidonic acid in absolute ethanol and a 50-μL aliquot of concentrated ammonium hydroxide is placed into a test tube. The solvent and excess ammonium hydroxide is evaporated under a stream of nitrogen at room temperature. The ammonium arachidonate residue is dissolved in 500 μL of 100 mM 2-amino-2-hydroxymethyl-1,3-propanediol hydrochloride (Tris HCl) buffer (pH 8.0) by using a vortex mixer. The final concentration of ammonium arachidonate (working solution) is 10.0 mM.
3. Enzyme Buffer 100 mM Tris HCl (pH 8.0) containing 2.0 mM phenol, 5.0 mM ethylenediaminetetraacetic acid (EDTA), 5.0 mM diethyldithiocarbamic acid and 1.0% Tween 20.
4. Reaction Buffer 100 mM Tris HCl (pH 8.0) containing 2.0 μM hematin and 1.0 mM phenol (prepared daily).
5. Detergent Solubilized Lipid-depleted Sheep Seminal Vesicle Microsome Suspension. Ten mg (solid) of lipid-depleted microsomal powder from sheep seminal vesicles is suspended in 1.0 mL of enzyme buffer and kept at 4° C. until used.
6. Solutions of Test (Formula I compound) or Reference Articles. Test and reference articles are dissolved in the reaction buffer prepared in 4) or a solvent that will not interfere with cyclooxygenase activity, e.g., dimethylsulfoxide, ethanol or acetone.
II. Cyclooxygenase Inhibition Assay
Three mL of the reaction buffer and 20 μL of the microsomal enzyme suspension are placed in a Yellow Springs Instrument (YSI) oxygen chamber where the temperature is maintained at 30° C. by means of a temperature controlled circulating water bath. Aliquots of the solutions containing ≤[…] of Formula I compound (test article) or reference article [see 6) above] are added to the YSI chamber and incubated for 2 minutes. The reaction is initiated by addition of 30 μL of the 10 mM ammonium arachidonate solution and cyclooxygenase activity determined polarigraphically using an oxygen electrode by measuring the rate of oxygen consumption [Cook et al., Anal. Biochem 96 341-51 (1979) and Cook and Lands, Can. J. Biochem. 53, 1220-1231 (1975)].
Test, reference, and control articles were evaluated in triplicate. Cyclooxygenase activity was determined from the slope (mv/unit time) of the recorder tracing with 1 mV being proportional to a 2.34 μM change in oxygen concentration.
The IC50 (concentration of test or reference article that inhibits the reaction by 50%) was calculated from cumulative plots relating the extent of inhibition of cyclooxygenase activity in control group assays to increasing concentrations of test article. Where no inhibition exists, the IC50 is expressed as greater than the highest concentration of the drug tested.

5-lipoxygenase = biological target: T2, 5-lipoxygenase (Homo sapiens, UniProt P09917); test: 5-Lipoxygenase Assay (production of 5-HETE from arachidonic acid in polymorphonuclear leukocytes stimulated by A23187); type: cell-based; conditions: inhibition of production of 5-HETE, human PMN cells, calcium ionophore A23187, 37° C.
T2 construct: Polymorphonuclear leukocytes were obtained from whole human blood; endogenous in cells; host or cells: human polymorphonuclear leukocytes from whole blood, stimulated with A23187
T2 sequence (P09917 1-674): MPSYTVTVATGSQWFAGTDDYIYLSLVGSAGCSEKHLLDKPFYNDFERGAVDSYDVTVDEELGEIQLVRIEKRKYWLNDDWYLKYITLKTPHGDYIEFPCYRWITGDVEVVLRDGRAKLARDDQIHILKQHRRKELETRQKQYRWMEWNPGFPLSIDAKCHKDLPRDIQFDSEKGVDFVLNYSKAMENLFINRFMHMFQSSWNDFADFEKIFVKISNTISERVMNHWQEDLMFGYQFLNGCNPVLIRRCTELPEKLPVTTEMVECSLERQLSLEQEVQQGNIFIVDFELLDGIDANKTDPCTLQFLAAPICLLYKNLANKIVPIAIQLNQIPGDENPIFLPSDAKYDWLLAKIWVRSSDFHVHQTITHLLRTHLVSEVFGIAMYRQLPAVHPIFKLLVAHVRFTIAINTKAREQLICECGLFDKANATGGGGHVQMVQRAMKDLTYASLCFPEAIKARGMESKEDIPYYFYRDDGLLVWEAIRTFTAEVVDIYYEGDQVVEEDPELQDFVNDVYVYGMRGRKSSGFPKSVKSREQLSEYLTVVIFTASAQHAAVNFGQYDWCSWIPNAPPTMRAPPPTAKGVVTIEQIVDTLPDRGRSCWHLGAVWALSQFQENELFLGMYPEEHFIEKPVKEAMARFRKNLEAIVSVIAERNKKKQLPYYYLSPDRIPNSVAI
Description: The production of 5-HETE from arachidonic acid in human polymorphonuclear leukocytes stimulated by the calcium ionophore A23187 (Calbiochemicals) was measured by reverse phase high pressure liquid chromatography. This procedure is a modification of the procedure of Sun and McGuire, PROSTAGLANDINS, 26, 211-221 (1983). Addition of substances to the test system that inhibit 5-lipoxygenases cause a decrease in the production of 5-HETE and is thus determined in comparison to reference and control articles also added to the reaction system.
Polymorphonuclear leukocytes were obtained from whole human blood by the procedure of Skoog and Beck, BLOOD, 11, 436-454 (1956). […] The tube is incubated for an additional 10 min at 37° C. and the incubations terminated by addition of 1.5 mL of acetone and cooling to 0° C. 13-Hydroxyoctadecatrienoic acid (13-HODT) (5 μL of 0.2 mM methanolic solution) is added for an internal reference standard. The tube is stored at -20° C. under argon for 4-18 hr. Centrifugation at 1000×g for 10 min causes protein precipitate to form a pellet. The acetone layer is evaporated under a stream of nitrogen and the resultant lipid residue containing the arachidonic acid metabolites and 13-HODT is dissolved in 0.5 mL of methanol and stored at -20° C. until analyzed by high-pressure liquid chromatography (HPLC).
For analysis, a 150-μL aliquot of the methanol solution is evaporated under a stream of argon. The residue is reconstituted with 100 μL of a 1:1 methanol-water mixture and sonified for 15-20 seconds and the mixture analyzed by HPLC (C18 reversed phase Econophere column, methanol:water:acetic acid 79:25:0.2 v/v/v used for elution). Test, reference, and control articles are evaluated in duplicate. The inhibition is reported as that concentration which will inhibit by 50% the production of 5-HETE.

guinea pig skin = test: UV-Erythema in Guinea Pigs; type: in vivo; parameters: key: +: active; -: inactive; conditions: topical, 50 μL of cream with 1.0 mg test article per 1 g, immediately after UV exposure; active = composite score significantly lower than control, Dunnett's t-test p≤0.05
Description: I. Preparation of Formulation (cream)
All drugs tested were prepared by thoroughly incorporating 1.0 mg of the test article into 1 g of a pH 7.0 cream vehicle of the following composition.
methyl glucose sesquistearate 1.6%
methyl gluceth-20 sesquistearate 2.4%
emulsifying wax, N.F. 5.0%
mineral oil (heavy), U.S.P. 1.0%
white petrolatum, U.S.P. 5.0%
stearic acid, U.S.P. 2.5%
sodium benzoate, N.F. 0.1%
magnesium aluminum silicate 1.5%
deionized water, pH 7.0 64.8%
The preparations were packed into 1-cc plastic syringes.
II. Pharmacological Assay
The backs of female, English short hair guinea pigs (250-500 g) were shaved and depilated with Nair®. Control and treated groups each consisted of 5 animals, and selection of the animals and the control and treatment groups was achieved by random procedures. A rubber sheet with three one-half inch holes spaced one-half inch apart was draped over backs of the guinea pigs. The guinea pigs were then exposed to ultraviolet (UV) light (Hanovia Model 10, ~650-800 μW/cm^2) for 15 seconds by holding the animals against the light source. Fifty μL of the test drug or reference drug (indomethacin or bromfenac) preparation were immediately rubbed onto the skin, either on the area exposed to UV light or to an area adjacent to the UV light exposed skin. The degree of erythema for each exposed area was scored at various times following exposure according to the following scale:
1=slight redness with faint outline
2=moderate to marked redness with distinct outline
The score was totaled for each guinea pig (maximum score is 6). The Dunnett's t-test was used to determine significant (p≤0.05) differences from the control (placebo treated) group.

Row | IC50 (cyclooxygenase) | IC50 (5-lipoxygenase) | SMILES | U.V. erythema (+ = active, - = inactive) (guinea pig skin)
1 | 120 nM | 7800 nM | CCCCC1SC(c2cccc(Oc3ccccc3)c2)N(CCc2ccccn2)C1=O (stereo not shown) [Example 18, 5-Butyl-2-(3-phenoxyphenyl)-3-[2-(2-pyridinyl)ethyl]-4-thiazolidinone] | –
2 | 1600 nM | 3500 nM | CCCCC1SC(c2cccc(Oc3ccccc3)c2)N(CCCOc2ccc(C(=O)O)cc2)C1=O (stereo not shown) [Example 30, 4-[3-[5-Butyl-4-oxo-2-(3-phenoxyphenyl)-3-thiazolidinyl]propoxy]benzoic acid] | –
3 | 50 nM | – | CCCC[C@@H]1S[C@H](c2cccc(Oc3ccccc3)c2)N(CCCCc2ccc(C(=O)OCC)cc2)C1=O (relative stereo) [Example 6, 4-[4-[5-Butyl-4-oxo-2-(3-phenoxyphenyl)-3-thiazolidinyl]butyl]benzoic acid ethyl ester] | –
4 | 70 nM | – | CCCC[C@@H]1S[C@@H](c2cccc(Oc3ccccc3)c2)N(CCCCc2ccc(C(=O)OCC)cc2)C1=O (relative stereo) [Example 5, 4-[4-[5-Butyl-4-oxo-2-(3-phenoxyphenyl)-3-thiazolidinyl]butyl]benzoic acid ethyl ester] | –

The remaining lines, values behind:

Row | SMILES | IC50 (cyclooxygenase) | IC50 (5-lipoxygenase) | U.V. erythema (+ = active, - = inactive) (guinea pig skin)
5 | CCCC[C@@H]1S[C@@H](c2cccc(C(=O)c3ccccc3)c2)N(c2ccc(O)cc2)C1=O (relative stereo) [Example 22, 2-(3-Benzoylphenyl)-5-butyl-3-(4-hydroxyphenyl)-4-thiazolidinone] | 2200 nM | 6400 nM | –
6 | CCCCC1SC(c2cccc(Oc3ccccc3)c2)N(CCc2ccc(O)cc2)C1=O (stereo not shown) [Example 59, 5-Butyl-3-[2-(4-hydroxyphenyl)ethyl]-2-(3-phenoxyphenyl)-4-thiazolidinone] | – | – | +
7 | CCCCC1SC(c2cccc(Oc3ccccc3)c2)N(CCCCCCC(=O)OCC)C1=O (stereo not shown) [Example 55, 5-Butyl-4-oxo-2-(3-phenoxyphenyl)-3-thiazolidineheptanoic acid ethyl ester] | 1000 nM | ~10000 nM | –
8 | CCCC[C@@H]1S[C@H](c2cccc(Oc3ccccc3)c2)N(c2ccc(O)cc2)C1=O (relative stereo) [Example 3, 5-Butyl-3-(4-hydroxyphenyl)-2-(3-phenoxyphenyl)-4-thiazolidinone] | 8000 nM | 5000 nM | –
